This note sets out measurements from patent US20220378681A1, “SKIN CARE FORMULATION WITH LIPOPHILIC PEPTIDES” (DECIEM BEAUTY GROUP INC., priority 2019, published 2022).

This series is described as follows: Solubility of SYM3D in oils. The format is physicochemical. As to the method:
Phase B may be prepared by adding MCT oil into a mixing vessel, and incorporating further ingredients such as one or more oil-soluble active ingredients. The ingredients are mixed at room temperature at a speed of 3000 RPM, with side sweep scraping at 15 RPM. Samples should be taken via the valve at the bottom of the kettle and tested by centrifugation, and the solution also visibly inspected to ensure complete incorporation of the second ingredient. Centrifugation of a sample of the mixture is an optional step to ensure complete dissolution of the second ingredient.
Amounts of SYM3D that would be effective in the invented formulation range from 0.1 to 1% by weight of the overall formulation. The specific amount used by the inventors in a sample formulation was 0.5%. SYM3D is selectively soluble in certain oils. […] It is therefore important to include an oil component such as MCT oil which is compatible with SYM3D if it is being used.

Regarding `CCCc1cc(OC)c2c(c1)C(C)C(c1ccc(O)c(OC)c1)O2` (centres unmarked) [SYM3D, dihydrodehydrodiisoeugenol], the “solubility in MCT oil” value (MCT oil, room temperature, 3000 RPM mixing) is “can be solubilized”. Moreover, for the setting “squalane”, the solubility in squalane result is “not soluble”.
